In patent US11655456B2, “Engineered intestinal tissue and uses thereof” (Organovo, Inc., priority 2016, dated 2023):
Entries after “also recorded” stand apart in the source; their conditions may differ. One block for each compound: values may come before it.

Legend:
BCRP = molecular target: T1, BCRP (Homo sapiens, UniProt Q9UNQ0)
T1 sequence (Q9UNQ0 1-655): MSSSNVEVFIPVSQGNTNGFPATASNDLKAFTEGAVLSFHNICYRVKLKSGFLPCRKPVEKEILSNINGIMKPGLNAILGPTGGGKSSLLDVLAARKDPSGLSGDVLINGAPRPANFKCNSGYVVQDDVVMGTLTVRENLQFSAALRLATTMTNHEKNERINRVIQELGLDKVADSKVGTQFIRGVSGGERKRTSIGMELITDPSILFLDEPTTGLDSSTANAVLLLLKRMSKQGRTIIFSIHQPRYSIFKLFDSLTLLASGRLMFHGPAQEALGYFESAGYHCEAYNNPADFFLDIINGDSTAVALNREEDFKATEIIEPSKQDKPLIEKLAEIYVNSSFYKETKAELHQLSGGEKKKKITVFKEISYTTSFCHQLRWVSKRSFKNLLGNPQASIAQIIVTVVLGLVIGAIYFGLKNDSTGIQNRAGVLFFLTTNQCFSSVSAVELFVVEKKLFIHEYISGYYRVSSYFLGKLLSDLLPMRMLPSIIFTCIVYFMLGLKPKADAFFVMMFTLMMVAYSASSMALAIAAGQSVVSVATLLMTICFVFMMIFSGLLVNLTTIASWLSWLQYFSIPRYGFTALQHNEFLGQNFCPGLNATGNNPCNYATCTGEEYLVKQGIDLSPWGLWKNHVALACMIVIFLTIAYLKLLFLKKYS
Protocol: FIGS. 25A-25D show P-gp and BCRP transporter function in 3D bioprinted intestinal tissue.
P-gp and BCRP function were tested in the 3D bioprinted intestinal tissue model by measuring bi-directional transport with and without inhibition (FIG. 25C).

[1] = tested on: 3D bioprinted intestinal tissue
[2] = tested on: 3D printed tissues and 2D epithelial monolayers of Caco-2/STC-1 cells; assay: Lucifer Yellow permeability (barrier integrity) of 3D printed Caco-2 tissues and 2D monolayers; assay type: in vitro ADME, human; conditions: bioprinted 3D constructs and 2D monolayers (Caco-2/STC-1), later stages of culture
Protocol: FIG. 5 is a bar graph showing permeability comparison of 2D monolayers and 3D bioprinted Caco-2 tissues measured by Lucifer Yellow. […] Permeability was measured on 3D printed tissues and compared to 2D epithelial monolayers of Caco-2/STC-1 cells and interstitium alone.
Experiment time course studies were run 4, 7, and 14 days post addition of epithelial cells. Tissues were measured for GLP-1 secretion into supernatant. Tissues were also measured for barrier function at multiple time points by TEER or Lucifer yellow (non-lytic assays). After incubation, the tissues were fixed in paraformaldehyde (PFA) for histology or lysed for RNA extraction.

[3] = tested on: 3D bioprinted intestinal tissue; remark: listed apart in the source
COX2, IL8, and TNFα = assay: Inflammation gene expression after TNFα treatment of 3D bioprinted intestinal tissue; assay type: cell-based, human; conditions: TNFα high dose, 24 hours
Protocol: To characterize the 3D bioprinted intestinal model response to inflammation, commonly associated with GI toxicity as well as chronic disease conditions, tissues were treated with a high dose of pro-inflammatory cytokine TNFα for 24 hours and evaluated for changes in morphology, LDH release, and gene expression (FIG. 28).

[4] = tested on: 3D bioprinted intestinal tissue; conditions: higher / increasing doses of indomethacin
[5] = tested on: 3D bioprinted intestinal tissue; assay: LDH activity / release from 3D bioprinted intestinal tissue after toxicant treatment
[6] = tested on: 3D bioprinted intestinal tissue; assay: Barrier function (TEER) of 3D bioprinted intestinal tissue after toxicant treatment; conditions: 24 hour incubation, varying doses
[7] = tested on: prostaglandin E2 synthesis; assay: Prostaglandin E2 synthesis in 3D bioprinted intestinal tissue; assay type: cell-based, human; conditions: all indomethacin doses tested

Compound: O=C1c2c(O)ccc(O)c2C(=O)c2c(NCCNCCO)ccc(NCCNCCO)c21 [mitoxantrone]
permeability in the B to A direction compared with A to B (BCRP): much higher permeability

permeability in the apical to basal direction [1]: moderate
Compound: C[C@H]1O[C@@H](O[C@H]2[C@@H](O)C[C@H](O[C@H]3[C@@H](O)C[C@H](O[C@H]4CC[C@@]5(C)[C@H](CC[C@@H]6[C@@H]5C[C@@H](O)[C@]5(C)[C@@H](C7=CC(=O)OC7)CC[C@]65O)C4)O[C@@H]3C)O[C@@H]2C)C[C@H](O)[C@@H]1O [digoxin]

Lucifer Yellow permeability [2]: < 3%
Compound: Lucifer yellow

Compound: TNFα
barrier function [3]: decreased barrier function | gene expression of COX2, IL8 and TNFα (COX2, IL8, and TNFα): upregulated

Compound: CC[C@@]1(O)C(=O)OCc2c1cc1n(c2=O)Cc2cc3c(CN(C)C)c(O)ccc3nc2-1 [topotecan]
efflux ratio (BCRP; control conditions): 8.8

Compound: COc1ccc2c(c1)c(CC(=O)O)c(C)n2C(=O)c1ccc(Cl)cc1 [indomethacin]
E-Cadherin expression (marker of barrier function) [4]: reduction in E-Cadherin; also recorded: decreased expression of E-Cadherin | histology of the epithelium [4]: disruption of the epithelium and distorted nuclear staining; also recorded: increased disruption of the epithelial layer | LDH activity ([5]; 24 hour treatment, increasing indomethacin dose): increased | LDH release ([5]; indomethacin doses above 0.25 mM): significantly increased | barrier function measured by TEER [6]: dose response decrease in TEER; also recorded: dose-dependent decrease in barrier function; also recorded: decreased TEER | prostaglandin E2 synthesis [7]: decreased to similar levels for all indomethacin doses tested; also recorded: inhibition of prostaglandin E2 synthesis
